# Test results published in US20090186915A1, “Compositions and methods for treatment of glioblastoma, gliosarcoma, NSCLC, and head and neck cancer” (Unibioscreen S. A., priority 2006, published 2009).
# “And” between values parts separate entries of the source, which are not always exact repeats. Equal entries are not always repeated. Where two headings read alike, the source gives them in different places.
# Tests used:
# PC-3 = experiment: Senescence-associated β-galactosidase staining, PC-3; assay type: cell-based, human; settings: 20 nM Adriamycin, 72 hours
# Description: After the indicated treatments, cells were washed in PBS, fixed for 3 to 5 minutes (at room temperature) in 2% formaldehyde/0.2% glutaraldehyde, washed and incubated at 37° C. (in the absence of CO2) with fresh senescence-associated β-Gal (SA-β-Gal) staining solution: 1 mg/ml of 5-bromo-4-chloro-3-indolyl […] (X-Gal; Sigma). Staining was evident within 2 to 4 hours and maximal after 12 to 16 hours. To detect lysosomal β-Gal, the citric acid/sodium phosphate used was pH 4.0. As described in the study of Dimri et al. [Proc Natl Acad Sci USA. 1995; 92:9363-9367.], after fixing and staining with X-Gal, the number of cells positive for the SA-β-Gal activity (intense blue staining) was then counted independently by two different individuals (on 400 cells/plate). Representative photographs (original magnifications, ×20) of stained cells from different experimental treatments were taken. As a positive control for SA-β-Gal expression, Adriamycin-treated cells were used.
# Human PC-3 and DU-145 prostate cancer cells cultured in 0 or 10 μM UNBS5162 or 20 nM Adriamycin for 72 hours were evaluated by SA-β-Gal staining. The data clearly indicate that 10 μM [but not 1 μM or 5×1 μM] […] TMZ, as an inducer of autophagy but not of senescence, was used as a negative control.
# PC3 = experiment: MTT overall cell growth, PC3 cells; assay type: cell-based; settings: Homo sapiens, 72 h; PC-3; 3 days of culturing; mean of six determinations; read-out: IC50 (μM) In Vitro Growth Inhibition
# Description: Tests were performed in order to rapidly, i.e. within 5 days, measure the effect of the compound of example 2 on the overall cell growth. The test measures the number of metabolically active living cells that are able to transform the yellow product 3-(4,5-dimethylthiazol-2-yl)-2,5-diphenyl tetrazolium bromide (herein referred as MTT) into the blue product formazan dye by mitochondrial reduction. The amount of formazan obtained at the end of the experiment, measured by means of a spectrophotometer, is directly proportional to the number of living cells. Optical density determination thus enables a quantitative measurement of the effect of the investigated compounds as compared to the control condition (untreated cells) and/or to other reference compounds. […]
# (§1) After 72 hours of incubation at 37° C. with (experimental conditions) or without (control condition) the compound to be tested, the medium was replaced by 100 μl MTT dissolved in RPMI (1640 without phenol red) at a concentration of 1 mg/ml. […] The micro-wells were shaken for 5 minutes and read on a spectrophotometer at wavelengths of 570 nm (maximum formazan absorbance) and 630 nm (back-ground noise).
# For each experimental condition, the mean optical density was calculated, as well as the percentage of remaining living cells in comparison with the control. […]
# U-373MG = experiment: MTT overall cell growth, U-373MG cells; assay type: cell-based; settings: Homo sapiens, 72 h; U373-MG; 3 days of culturing; mean of six determinations; read-out: IC50 (μM) In Vitro Growth Inhibition
# Description: (§2) Tests were performed in order to rapidly, i.e. within 5 days, measure the effect of the compound of example 2 on the overall cell growth. The test measures the number of metabolically active living cells that are able to transform the yellow product 3-(4,5-dimethylthiazol-2-yl)-2,5-diphenyl tetrazolium bromide (herein referred as MTT) into the blue product formazan dye by mitochondrial reduction. The amount of formazan obtained at the end of the experiment, measured by means of a spectrophotometer, is directly proportional to the number of living cells. Optical density determination thus enables a quantitative measurement of the effect of the investigated compounds as compared to the control condition (untreated cells) and/or to other reference compounds.
# (§3) Six human cancer cell lines described in table 1 were used in the following MTT tests. These cell lines cover six histological cancer types, being prostate, glioma, pancreas, colon, lung and breast cancers. Cells were allowed to grow in 96 well micro-wells with a flat bottom with an amount of 100 μl of cell suspension per well with 1,000 to 4,000 cells/well depending on the cell type used. Each cell line was seeded in a well known MEM 10% serum culture medium. […]
# as §1
# (§4) For each experimental condition, the mean optical density was calculated, as well as the percentage of remaining living cells in comparison with the control.
# (§5) The overall growth of human cancer cell lines was determined by means of the calorimetric MTT (3-[4,5-dimethylthiazol-2-yl]-diphenyl tetrazolium bromide; Sigma) assay, as detailed previously.
# BxPC3 = experiment: MTT overall cell growth, BxPC3 cells; assay type: cell-based; settings: Homo sapiens, BXPC-3, 72 h; Bx-PC-3; 3 days of culturing; mean of six determinations; read-out: IC50 (μM) In Vitro Growth Inhibition
# Description: as §2, §3, §1, §4, §5
# DU-145 = experiment: MTT colorimetric assay, DU-145 cells; assay type: cell-based; settings: Homo sapiens, 72 h, 3 days of culturing, mean of six determinations, read-out: IC50 (μM) In Vitro Growth Inhibition
# Description: as §5
# Hs683 = experiment: MTT colorimetric assay, Hs683 cells; assay type: cell-based; settings: Homo sapiens, Hs 683, 72 h, 3 days of culturing, mean of six determinations, read-out: IC50 (μM) In Vitro Growth Inhibition
# Description: as §5
# HCT-15 = experiment: MTT colorimetric assay, HCT-15 cells; assay type: cell-based; settings: Homo sapiens, 72 h, 3 days of culturing, mean of six determinations, read-out: IC50 (μM) In Vitro Growth Inhibition
# Description: as §5
# LoVo = experiment: MTT colorimetric assay, LoVo cells; assay type: cell-based; settings: Homo sapiens, 72 h, 3 days of culturing, mean of six determinations, read-out: IC50 (μM) In Vitro Growth Inhibition
# Description: as §5
# MCF-7 = experiment: MTT colorimetric assay, MCF-7 cells; assay type: cell-based; settings: Homo sapiens, MCF7, 72 h, 3 days of culturing, mean of six determinations, read-out: IC50 (μM) In Vitro Growth Inhibition
# Description: as §5
# A549 = experiment: MTT colorimetric assay, A549 cells; assay type: cell-based; settings: Homo sapiens, 72 h, 3 days of culturing, mean of six determinations, read-out: IC50 (μM) In Vitro Growth Inhibition
# Description: as §5
# [1] = system: nine human cancer cell lines; experiment: MTT colorimetric assay, mean of nine cell lines; assay type: cell-based; settings: mean over nine human cancer cell lines, read-out: mean antiproliferative activity IC50
# Description: as §5
# UNBS3157 and UNBS5162 display weak antiproliferative activity in vitro.
# P-glycoprotein = experiment: P-gp ATPase activity (P-gp Drug interaction Assay Kit); assay type: biochemical
# Description: In order to test drug interaction with P-glucoprotein (herein-after referred as P-gp) we used an assay based on the study of modulation of ATPase activity from enriched P-gp membrane vesicle preparation (the following kit has been used: P-gp Drug interaction Assay Kit commercially available from SPI BIO France). P-gp ATPase activity was measured by a spectrophotometric method based on monitoring of ADP formation in the vesicle suspension medium. The basal ATPase activity was defined as the activity determined in the absence of any added drug. […]
# [2] = system: human PC-3 orthotopic xenografts
# Description: (§6) Orthotopic xenografts were obtained by injecting 2.5×10^6 human PC-3 or DU-145 cells into the prostate of 6-week-old male nu/nu mice (n=9 animals per treatment group). All grafts were performed under anesthesia [saline/Rompun (Bayer, Leverkusen, Germany)/Imalgene (Merial, Lyons, France); 5:1:1 by volume]. The end point in these orthotopic experiments was the survival period of the tumor-bearing mice after the administration of UNBS3157, UNBS5162, or reference anticancer agents (taxol, mitoxantrone, and amonafide). However, for ethical reasons, animals were killed when 20% of body weight had been lost compared to that determined at the time of tumor grafting. All animals were weighed three times a week. […] In the case of UNBS5162 experiments in the PC-3 model, after the sacrifice of animals, tumors were removed from both drug-treated [10 mg/kg, intravenous (i.v.)] and vehicle-treated mice, fixed in buffered formalin, embedded in paraffin, and 5-μm-thick sections taken. These histologic slides were then stained with hematoxylin and eosin for blood vessel counts.
# [3] = system: human DU-145 orthotopic xenografts; experiment: Orthotopic DU-145 prostate cancer xenograft, survival; assay type: in vivo, nu/nu mice; settings: DU-145 orthotopic model
# Description: as §6
# [4] = In vitro stability of UNBS3157 in saline/DMSO; assay type: physicochemical; settings: physiological saline/DMSO (95:5 v/v), 37° C.
# [5] = system: platelets, red and white blood cells; experiment: Compound-induced hematotoxicity and tolerance in mice; assay type: in vivo; settings: five times a week for three weeks
# Description: We have determined the compound-induced potential hematotoxicity of the compound produced according to example 2 or example 7 on platelets, red and white blood cells in comparison of the effect of amonafide on platelets, red and white blood cells. The effect of amonafide was evaluated at 10 mg/kg and 20 mg/kg, by the intra-peritoneal administration to mice. The administration schedule was five times a week for three consecutive weeks. The effect of the compound produced according to example 2 or example 7 was evaluated at 20 mg/kg, by the intra-venous administration to mice. The administration schedule was three times a week (on Mondays, Wednesdays and Fridays) for five consecutive weeks. The animals were sacrificed 3 days after the last injection. There were 10 mice per group. FIG. 1 illustrates results of this assay for compound-induced hematotoxicity on platelets.
# [6] = system: human A549 NSCLC orthotopic; settings: Taxol i.v. 20 mg/kg (1i × 3w)
# Description: The purpose of the present study was to evaluate the in vivo efficacy of UNBS5162 on human A549 NSCLC orthotopic nude mice model. The endpoint in this experiment was the survival period of the tumor-bearing mice following treatment, as indicated.
# The experiment comprised 6 groups of II mice, one group with mice receiving the vehicle only (Ct group) and 5 groups receiving the treatments as indicated in the Table 13. UNBS5162 was dosed i.v. at 10 mg/kg (in lactic acid vehicle). Taxol (Paclitaxel 6 mg/mL, Bristol-Myers Squibb) was dosed i.v. at 20 mg/kg.
smiles,measurement,setting,value
"COc1cccc2c1C(=O)c1c(O)c3c(c(O)c1C2=O)C[C@@](O)(C(=O)CO)C[C@@H]3O[C@H]1C[C@H](N)[C@H](O)[C@H](C)O1 [Adriamycin, doxorubicin, reference compound]",SA-β-Gal expression,PC-3,Limited SA-β-Gal expression
"CN(C)CCN1C(=O)c2cccc3cc(NC(=O)NC(=O)C(Cl)(Cl)Cl)cc(c23)C1=O [UNBS3157, 2,2,2-trichloro-N-[({2-[2-(dimethylamino)ethyl]-1,3-dioxo-2,3-dihydro-1H-benzo[de]isoquinolin-5-yl}amino)carbonyl]acetamide]",IC50,PC3,15.1 µM
same,IC50,U-373MG,3.9 µM
same,IC50,BxPC3,17.2 µM
same,IC50,DU-145,23 µM
same,IC50,Hs683,9.9 µM
same,IC50,HCT-15,29.3 µM
same,IC50,LoVo,26.4 µM
same,IC50,MCF-7,44.3 µM
same,IC50,A549,8.7 µM
same,IC50,[1],19.8 µM
same,modulation of Pgp ATPase activity,P-glycoprotein; 100 μM (data not shown),do not affect Pgp ATPase activity
same,% T/C,"[2]; PC-3 orthotopic model, 40 mg/kg p.o.",100%
same,% T/C,"[2]; PC-3 orthotopic model, 160 mg/kg orally",151%
same,% T/C,[3]; 20 mg/kg i.v.,143%
same,% T/C,[3]; 40 mg/kg orally,164%
same,production of amonafide on hydrolysis,[4]; 22-hour incubation,without production of amonafide
same,hydrolyzed to UNBS5162,"[4]; in 270 minutes, 10^−4 M",90%
CN(C)CCN1C(=O)c2cccc3cc(N)cc(c23)C1=O [amonafide],tolerance of chronic administrations,[5]; 10 mg/kg intra-peritoneal,tolerated 15 chronic administrations
same,tolerance of chronic administrations,[5]; 20 mg/kg intra-peritoneal,all animals died before receiving the complete set of 15 administrations
same,modulation of basal P-gp ATPase activity,P-glycoprotein; 50 μM,significantly alter the ATPase activity
same,% T/C,"[2]; PC-3 orthotopic model, 40 mg/kg p.o., 40 mg/kg",103% and 107%
same,activity (survival),[3]; 20 mg/kg i.v. and lower doses,inactive
same,% T/C,[3]; 40 mg/kg orally,138%
"O=C1c2c(O)ccc(O)c2C(=O)c2c(NCCNCCO)ccc(NCCNCCO)c21 [mitoxantrone, reference compound]",therapeutic benefit (survival),"[2]; PC-3 orthotopic model, mitoxantrone i.v.",failed to contribute any therapeutic benefit
same,toxicity,"[2]; mouse, in vivo, iv, 2.5 mg/kg",highly toxic
"CC(=O)O[C@H]1C(=O)[C@@]2(C)[C@H]([C@H](OC(=O)c3ccccc3)[C@]3(O)C[C@H](OC(=O)[C@H](O)[C@@H](NC(=O)c4ccccc4)c4ccccc4)C(C)=C1C3(C)C)[C@]1(OC(C)=O)CO[C@@H]1C[C@@H]2O [taxol, reference compound]",% T/C,[3]; 20 mg/kg i.v.,146%
same,T/C (%),[6],128%
